Data taken from patent publication US11040954B1, “CXCR3 receptor agonists” (RECEPTOS LLC, priority 2016, dated 2021).

Target: T1, CXCR3 (Homo sapiens, UniProt P49682)
T1 construct: host or cells: CHO-K1 (cAMP Hunter CHOK1 CXCR3 Gi cell line)
T1 sequence (P49682 1-368): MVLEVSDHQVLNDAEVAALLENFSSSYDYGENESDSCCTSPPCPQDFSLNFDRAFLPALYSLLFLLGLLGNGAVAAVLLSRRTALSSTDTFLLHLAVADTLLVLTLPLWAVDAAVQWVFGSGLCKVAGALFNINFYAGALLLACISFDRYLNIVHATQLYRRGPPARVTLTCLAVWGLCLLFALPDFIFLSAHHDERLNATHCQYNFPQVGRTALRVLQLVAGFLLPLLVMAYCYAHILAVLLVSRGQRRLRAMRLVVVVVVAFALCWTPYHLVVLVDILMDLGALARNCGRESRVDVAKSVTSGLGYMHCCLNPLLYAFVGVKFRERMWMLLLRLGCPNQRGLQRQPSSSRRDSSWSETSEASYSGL
Experiment: CXCR3 cAMP agonist assay (cAMP Hunter CHOK1 CXCR3 Gi cell line, forskolin-stimulated, HitHunter cAMP detection)
Assay type: cell-based
Settings: cAMP Hunter CHOK1 CXCR3 Gi cells, 20 μM forskolin, 30 minutes; read-out: Activity (CXCR3 cAMP agonist assay compound EC50)
How it was run: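 CHOK1 cells expressing human CXCR3 with Gi coupling, 50,000/well in suspension in HBSS/10 mM HEPES/0.1% BSA pH 7.4, were co-treated with 20 μM forskolin and compound (12-point, 0-10 μM, 1% DMSO) for 30 min. cAMP was read by enzyme-complementation luminescence; CXCL11 dose response set maximum efficacy.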

| EC50 [nM] | SMILES |
| --- | --- |
| 50 to 250 | Cc1cc(NC(=O)[C@H](CCN)NC(=O)[C@@H]2Cc3ccccc3CN2C(=O)CCC(=O)N2CCCN(C)CC2)ccc1Cl [Compound 12-34] |
| < 50 | CC1(C)CCCN1C(=O)CCC(=O)N1Cc2cc(F)ccc2C[C@H]1C(=O)N[C@@H](CCN)C(=O)Nc1ccc(Cl)c(Cl)c1F [Compound 15-61] |
| < 50 | CC1(C)CCN(C(=O)CCC(=O)N2Cc3ccccc3C[C@H]2C(=O)N[C@@H](CCN)C(=O)Nc2ccc(Cl)c(Cl)c2F)CC1 [Compound 15-1, (S)—N—((S)-4-amino-1-((3,4-dichloro-2-fluorophenyl)amino)-1-oxobutan-2-yl)-2-(4-(4,4-dimethylpiperidin-1-yl)-4-oxobutanoyl)-1,2,3,4-tetrahydroisoquinoline-3-carboxamide] |
| 250 to 500 | CCN(CC)C(=O)CCC(=O)N1Cc2ccccc2C[C@H]1C(=O)N[C@@H](CCN)C(=O)Nc1ccc(Cl)c(Cl)c1F [Compound 15-42] |
| < 50 | Cc1cc(NC(=O)[C@H](CCN)NC(=O)[C@@H]2Cc3ccccc3CN2C(=O)CCC(=O)N2CCC[C@@H]2CF)ccc1Cl [Compound 12-144] |
| 250 to 500 | CC(=O)N1CCN(CC[C@H](NC(=O)[C@@H]2Cc3ccccc3CN2C(=O)CCC(=O)c2ccccc2)C(=O)Nc2ccc(Cl)c(C)c2)CC1 [Compound 19-1, (S)—N—((S)-4-(4-acetylpiperazin-1-yl)-1-((4-chloro-3-methylphenyl)amino)-1-oxobutan-2-yl)-2-(4-oxo-4-phenylbutanoyl)-1,2,3,4-tetrahydroisoquinoline-3-carboxamide] |
| < 50 | Cc1cccc(NC(=O)[C@H](CCN2CCC(O)CC2)NC(=O)[C@@H]2Cc3ccccc3CN2C(=O)CCC(=O)c2ccccc2)c1F [Compound 28-2] |
| < 50 | Cc1cc(NC(=O)[C@H](CCN)NC(=O)[C@@H]2Cc3ccccc3CN2C(=O)CCC(=O)N2CCC(C(C)(C)C)CC2)ccc1Cl [Compound 12-87] |
| < 50 | CCNCC[C@H](NC(=O)[C@@H]1Cc2ccccc2CN1C(=O)CCC(=O)c1ccccc1)C(=O)Nc1ccc(Cl)c(C)c1 [Compound 8-4] |
| < 50 | Cc1cc(NC(=O)[C@H](CCN)NC(=O)[C@@H]2Cc3ccccc3CN2C(=O)CCC(=O)N2CCCC2C(C)C)ccc1Cl (stereo partly shown) [Compound 12-71] |
| > 500 | CC(C)c1ccc(NC(=O)[C@H](CCCCN)NC(=O)[C@@H]2Cc3ccccc3CN2C(=O)CCC(=O)c2ccccc2)cc1 [Compound 1-7] |
| 50 to 250 | COc1c(NC(=O)[C@H](CCN)NC(=O)[C@@H]2Cc3ccccc3CN2C(=O)CCC(=O)c2ccccc2)ccc2c1CCC2 [Compound 2-58] |
| < 50 | Cc1cc(NC(=O)[C@H](CCN)NC(=O)[C@@H]2Cc3ccccc3CN2C(=O)CCC(=O)N(C)C(C)(C)C)ccc1Cl [Compound 12-93] |
| < 50 | Cc1cc(NC(=O)[C@H](CCN)NC(=O)[C@@H]2Cc3ccccc3CN2C(=O)CCC(=O)N2CCC(C)(C)C2)ccc1Cl [Compound 12-29] |
| 50 to 250 | COC1CCN(CC[C@H](NC(=O)[C@@H]2Cc3ccccc3CN2C(=O)CCC(=O)c2ccccc2)C(=O)Nc2ccc(Cl)c(C)c2)CC1 [Compound 24-1, (S)—N—((S)-1-((4-chloro-3-methylphenyl)amino)-4-(4-methoxypiperidin-1-yl)-1-oxobutan-2-yl)-2-(4-oxo-4-phenylbutanoyl)-1,2,3,4-tetrahydroisoquinoline-3-carboxamide] |
| > 500 | NCCCC[C@H](NC(=O)[C@@H]1Cc2ccccc2CN1C(=O)CCC(=O)c1ccccc1)C(=O)Nc1ccc(-c2ccccc2)cc1 [Compound 1-5] |
| < 50 | Cc1cc(NC(=O)[C@H](CCN)NC(=O)[C@@H]2Cc3ccccc3CN2C(=O)CCC(=O)N2CCCCC23CCC3)ccc1Cl [Compound 12-72] |
| < 50 | Cc1ccc(NC(=O)[C@H](CCCCN)NC(=O)[C@@H]2Cc3ccccc3CN2C(=O)CCC(=O)c2ccccc2)cc1Cl [Compound 1-27] |
| 50 to 250 | Cc1cc(NC(=O)[C@H](Cc2ccncc2)NC(=O)[C@@H]2Cc3ccccc3CN2C(=O)CCC(=O)c2ccccc2)ccc1Cl [Compound 3-4] |
| < 50 | Cc1ccc(OC(F)(F)F)c(NC(=O)[C@H](CCN)NC(=O)[C@@H]2Cc3ccccc3CN2C(=O)CCC(=O)c2ccccc2)c1 [Compound 14-25] |
| < 50 | Cc1cc(NC(=O)[C@H](CCN)NC(=O)[C@@H]2Cc3ccccc3CN2C(=O)CCC(=O)N2CCCC(F)C2)ccc1Cl (stereo partly shown) [Compound 12-63] |
| 50 to 250 | CCC(CC)C1CCCCN1C(=O)CCC(=O)N1Cc2ccccc2C[C@H]1C(=O)N[C@@H](CCN)C(=O)Nc1ccc(Cl)c(Cl)c1F (stereo partly shown) [Compound 15-23] |
| < 50 | CC[C@@H]1CN(C(=O)CCC(=O)N2Cc3ccccc3C[C@H]2C(=O)N[C@@H](CCN)C(=O)Nc2ccc(Cl)c(C)c2)CCN1C [Compound 12-151] |
| 50 to 250 | NCC[C@H](NC(=O)[C@@H]1Cc2ccccc2CN1C(=O)CCC(=O)N1CCCC[C@H]1CO)C(=O)Nc1ccc(Cl)c(Cl)c1F [Compound 15-19] |
| > 500 | COc1c(NC(=O)[C@H](CCN)NC(=O)[C@@H]2Cc3ccccc3CN2C(=O)CCC(=O)c2ccccc2)ccc(Cl)c1Cl [Compound 14-27] |

| EC50 [nM] | SMILES |
| --- | --- |
| 50 to 250 | Cc1cc(NC(=O)[C@H](CCN)NC(=O)[C@@H]2Cc3ccccc3CN2C(=O)CCC(=O)N2CCC(O)C2)ccc1Cl (stereo partly shown) [Compound 12-48] |
| 50 to 250 | Cc1cccc(NC(=O)[C@H](CCCCN)NC(=O)[C@@H]2Cc3ccccc3CN2C(=O)CCC(=O)c2ccccc2)c1 [Compound 1-10] |
| < 50 | CC[C@H]1CCN(C(=O)CCC(=O)N2Cc3ccccc3C[C@H]2C(=O)N[C@@H](CCN)C(=O)Nc2ccc(Cl)c(C)c2)C1 [Compound 12-153] |
| < 50 | Cc1cc(NC(=O)[C@H](CCN)NC(=O)[C@@H]2Cc3ccccc3CN2C(=O)CCC(=O)N2CCC3(CCC3)CC2)ccc1Cl [Compound 12-59] |
| 50 to 250 | Cc1cc(NC(=O)[C@H](CCN)NC(=O)[C@@H]2Cc3ccccc3CN2C(=O)CCC(=O)N2CCOCC2)ccc1Cl [Compound 10-2] |
| < 50 | CCC1CCCN(C(=O)CCC(=O)N2Cc3ccccc3C[C@H]2C(=O)N[C@@H](CCN)C(=O)Nc2ccc(Cl)c(C)c2)C1 (stereo partly shown) [Compound 12-120] |
| < 50 | Cc1cc(NC(=O)[C@H](CCN)NC(=O)[C@@H]2Cc3ccccc3CN2C(=O)CCC(=O)N2CCCC(C(C)C)C2)ccc1Cl (stereo partly shown) [Compound 12-96] |
| < 50 | COC1CCN(C(=O)CCC(=O)N2Cc3ccccc3C[C@H]2C(=O)N[C@@H](CCN)C(=O)Nc2ccc(Cl)c(C)c2)CC1 [Compound 12-42] |
| 50 to 250 | Cc1cc(NC(=O)[C@@](C)(CCCCN)NC(=O)[C@@H]2Cc3ccccc3CN2C(=O)CCC(=O)c2ccccc2)ccc1Cl [Compound 4-9] |
| < 50 | CN(CCC(C)(C)C)C(=O)CCC(=O)N1Cc2ccccc2C[C@H]1C(=O)N[C@@H](CCN)C(=O)Nc1ccc(Cl)c(Cl)c1F [Compound 15-44] |
| 250 to 500 | NCC[C@H](NC(=O)[C@@H]1Cc2ccccc2CN1C(=O)CCC(=O)N1CCC2(CC1)CC(F)(F)C2)C(=O)Nc1ccc(Cl)c(Cl)c1F [Compound 15-24] |
| > 500 | Cc1ccc(C(=O)CCC(=O)N2Cc3ccccc3C[C@H]2C(=O)N[C@@H](CCCCN)C(=O)Nc2ccc(Cl)c(C)c2)cc1F [Compound 7-5] |
| < 50 | NCC[C@H](NC(=O)[C@@H]1Cc2ccccc2CN1C(=O)CCC(=O)N1CCCC(CF)C1)C(=O)Nc1ccc(Cl)c(Cl)c1F (stereo partly shown) [Compound 15-25] |
| 250 to 500 | Cc1cccc(NC(=O)[C@H](CCN2CCC(O)CC2)NC(=O)[C@@H]2Cc3ccccc3CN2C(=O)CCC(=O)c2ccccc2)c1Cl (racemic) [Compound 25-3] |
| > 500 | Cc1cc(NC(=O)[C@H](CCN)NC(=O)[C@@H]2Cc3ccccc3CN2C(=O)CCC(=O)N2CCN(c3ccccc3)CC2)ccc1Cl [Compound 12-101] |
| 50 to 250 | O=C(CCC(=O)N1Cc2ccccc2C[C@H]1C(=O)N[C@@H](CCN1CCS(=O)(=O)CC1)C(=O)Nc1ccc2c(c1)CCC2)c1ccccc1 [Compound 23-9] |
| > 500 | NCC[C@H](NC(=O)[C@@H]1Cc2ccccc2CN1C(=O)CCC(=O)c1ccccc1)C(=O)Nc1ccc2c(c1)CCC2=O [Compound 2-69] |
| 50 to 250 | Cc1cc(NC(=O)[C@H](CCN)NC(=O)[C@@H]2Cc3ccccc3CN2C(=O)CCC(=O)N2CCN(c3nccs3)CC2)ccc1Cl [Compound 12-108] |
| < 50 | Cc1cc(NC(=O)[C@H](CCN)NC(=O)[C@@H]2Cc3ccccc3CN2C(=O)CCC(=O)N2CCCC3(CCC3)C2)ncc1Cl [Compound 12-158] |
| 50 to 250 | Cc1cc(NC(=O)[C@H](CCCCN)NC(=O)[C@@H]2Cc3ccccc3CN2C(=O)CCC(=O)c2ccccc2)ccc1C(F)(F)F [Compound 1-28] |
| < 50 | Cc1cc(NC(=O)[C@H](CCN)NC(=O)[C@@H]2Cc3ccccc3CN2C(=O)CCC(=O)N2CCCC2C(F)(F)F)ccc1Cl (stereo partly shown) [Compound 12-51] |
| < 50 | NCC[C@H](NC(=O)[C@@H]1Cc2ccccc2CN1C(=O)CCC(=O)N1CCC2(CCC2)C1)C(=O)Nc1ccc(Cl)c(Cl)c1F [Compound 15-33] |
| < 50 | Cc1cc(NC(=O)[C@H](CCN)NC(=O)[C@@H]2Cc3ccccc3CN2C(=O)CCC(=O)N2CCCC23CCC3)ccc1Cl [Compound 12-73] |
| < 50 | Cc1cc(NC(=O)C2(NC(=O)[C@@H]3Cc4ccccc4CN3C(=O)CCC(=O)c3ccccc3)CCNCC2)c(F)cc1Cl [Compound 11-3] |
